Laboratory results as given in ChEMBL document CHEMBL3217663, “Evaluation of FR901464 analogues in vitro and in vivo” (Medchemcomm, 2011).
The source made the active and inactive calls. No cut-off for these calls is given here.

What was measured:
[1] = test system: HCT-116; test: Antiproliferative activity against human HCT116 cells assessed as growth inhibition after 24 to 72 hrs by MTS assay; format: functional
[2] = Antiproliferative activity against NHDF assessed as growth inhibition after 24 to 72 hrs by MTS assay; format: cell-based; details: human, NHDF cells
[3] = Antiproliferative activity against HUVEC assessed as growth inhibition after 24 to 72 hrs by MTS assay; format: cell-based; details: human, HUVEC cells
[4] = Antiproliferative activity against NHLF assessed as growth inhibition after 24 to 72 hrs by MTS assay; details: human, NHLF cells
[5] = Antiproliferative activity against HMEC assessed as growth inhibition after 24 to 72 hrs by MTS assay; format: cell-based; details: human, HMEC cells
[6] = test system: Mus musculus; test: Toxicity in mouse assessed as body weight loss at 0.5 mg/kg, iv led to the euthanization of mouse on day 9; format: organism-based; set-up: dose 0.5 mg/kg, route intravenous; details: in vivo
[7] = Toxicity in mouse assessed as tolerated dose compound treated once daily for 5 consecutive days; format: organism-based; details: in vivo
[8] = test system: Mus musculus; test: Toxicity in mouse assessed as death at 0.03 to 3 mg/kg, iv once every 4 days for 3 injections; format: organism-based; set-up: dose 0.03-3 mg/kg, route intravenous; details: in vivo, 96 h
[9] = test system: HCT-116; test: Antitumor activity against human HCT116 cells xenografted in NCr-nu/nu mouse assessed as tumor inhibition rate measured on day 41 at 6 mg/kg, iv once every 4 days for 3 injections after 16 days of tumor cell transplantation; format: functional
[10] = test system: Mus musculus; test: Toxicity in mouse assessed as death at >= 1.5 mg/kg, iv compound treated once daily for 5 consecutive days; format: organism-based; set-up: dose 1.5 mg/kg, route intravenous; details: in vivo
[11] = Plasma concentration in mouse at 6 mg/kg, iv after 30 mins; format: ADME, organism-based; set-up: dose 6 mg/kg, route intravenous
[12] = test system: Mus musculus; test: Toxicity in mouse assessed as body weight loss at 1 mg/kg, iv once every 4 days for 3 injections; format: organism-based; set-up: dose 1 mg/kg, route intravenous; details: in vivo, 96 h
[13] = test system: HCT-116; test: Antitumor activity against human HCT116 cells xenografted in NCr-nu/nu mouse assessed as tumor weight reduction at 1.5 to 3 mg/kg, iv once every 4 days for 3 injections after 16 days of tumor cell transplantation; format: functional, organism-based
[14] = test system: Mus musculus; test: Toxicity in mouse assessed as death at 0.5 mg/kg, iv led to the euthanization of mouse on day 9; format: organism-based, NCr; set-up: dose 0.5 mg/kg, route intravenous; details: in vivo
[15] = test system: PC-3; test: Antitumor activity against human PC3 cells xenografted in NCr-nu/nu mouse assessed as tumor weight reduction measured on day 22 at 1 mg/kg, iv once daily for 5 injections; format: functional; details: PC-3, 528 h
[16] = test system: Mus musculus; test: Toxicity in mouse assessed as body weight loss at 3 mg/kg, iv once every 4 days for 3 injections; format: organism-based; set-up: dose 3 mg/kg, route intravenous; details: in vivo, 96 h
[17] = Half life in mouse serum; format: ADME
[18] = test system: HCT-116; test: Antitumor activity against human HCT116 cells xenografted in NCr-nu/nu mouse assessed as tumor inhibition rate measured on day 41and 44 at 15 mg/kg, iv once daily for 5 injections after 16 days of tumor cell transplantation; format: functional; details: HCT-116, 384 h
[19] = test system: A549; test: Antiproliferative activity against human A549 cells assessed as growth inhibition after 24 to 72 hrs by MTS assay; format: functional
[20] = test system: MCF7; test: Antiproliferative activity against human MCF7 cells assessed as growth inhibition after 24 to 72 hrs by MTS assay; format: functional
[21] = test system: P388; test: Antiproliferative activity against mouse P388 cells assessed as growth inhibition after 24 to 72 hrs by MTS assay; format: functional
[22] = Plasma concentration in mouse at 6 mg/kg, iv upto 4 hrs; format: ADME, organism-based; set-up: dose 6 mg/kg, route intravenous
[23] = Therapeutic index, ratio of GI50 for human HCT116 cells to GI50 for HUVEC; format: cell-based, HCT-116; details: HCT116 cells and HUVEC cells, read-out: RatioGI50
[24] = test system: MDA-MB-231; test: Antiproliferative activity against human MDA-MB-231 cells assessed as growth inhibition after 24 to 72 hrs by MTS assay; format: functional
[25] = Therapeutic index, ratio of GI50 for human HCT116 cells to GI50 for NHLF; format: cell-based, HCT-116; details: HCT116 cells and NHLF cells, read-out: RatioGI50
[26] = Therapeutic index, ratio of GI50 for human HCT116 cells to GI50 for HMEC; format: cell-based, HCT-116; details: HCT116 cells and HMEC cells, read-out: RatioGI50
[27] = Therapeutic index, ratio of GI50 for human HCT116 cells to GI50 for NHDF; format: cell-based, HCT-116; details: HCT116 cells and NHDF cells, read-out: RatioGI50
[28] = test system: Mus musculus; test: Toxicity in mouse assessed as body weight loss at 0.03 to 3 mg/kg, iv once every 4 days for 3 injections; format: organism-based; set-up: dose 0.03-3 mg/kg, route intravenous; details: in vivo, 96 h
[29] = test system: HCT-116; test: Antitumor activity against human HCT116 cells xenografted in NCr-nu/nu mouse assessed as tumor weight reduction at 6 mg/kg, iv once every 4 days for 3 injections after 16 days of tumor cell transplantation; format: functional

SMILES | GI50 [1] | GI50 [2] | GI50 [3] | GI50 [4] | GI50 [5] | Activity [8] | Activity [13] | half-life [17] | GI50 [20] | selectivity ratio [23] | GI50 [24] | selectivity ratio [25] | selectivity ratio [26] | selectivity ratio [27] | further results
COc1cccc2c1C(=O)c1c(O)c3c(c(O)c1C2=O)C[C@@](O)(C(=O)CO)C[C@@H]3O[C@H]1C[C@H](N)[C@H](O)[C@H](C)O1 [DOXORUBICIN] | 70 nM | 462 nM | 109 nM | 223 nM | 276 nM |  |  |  |  |  |  |  |  |  | 
CC(/C=C/[C@H]1OC(C)(C)C[C@@]2(CO2)[C@@H]1O)=C\C[C@@H]1O[C@H](C)[C@H](NC(=O)/C=C\[C@H](C)OC(=O)N2CCOCC2)C[C@@H]1C |  |  |  |  |  | Non-toxic | inactive | 13 h |  |  |  |  |  |  | Activity [6]: 6%; MTD at 5 days [7]: 0.5 mg/kg; inhibition in vivo at 6 mg/kg [9]: 41%; Activity [10]: Toxic; concentration at 0.5 h [11]: < 10 ng/mL; Activity [12]: 10%; Activity [14]: Toxic; inhibition in vivo at 1 mg/kg [15]: 26%; Activity [16]: 11%
CC(=O)O[C@H]1C(=O)[C@@]2(C)[C@H]([C@H](OC(=O)c3ccccc3)[C@]3(O)C[C@H](OC(=O)[C@H](O)[C@@H](NC(=O)c4ccccc4)c4ccccc4)C(C)=C1C3(C)C)[C@]1(OC(C)=O)CO[C@@H]1C[C@@H]2O [PACLITAXEL] |  |  |  |  |  |  |  |  |  |  |  |  |  |  | inhibition in vivo at 15 mg/kg [18]: 81%
CC(=O)O[C@@H](C)/C=C\C(=O)N[C@@H]1C[C@H](C)[C@H](C/C=C(C)/C=C/[C@H]2O[C@](C)(O)C[C@@]3(CO3)[C@@H]2O)O[C@@H]1C | 1 nM |  |  |  |  |  |  |  | 1 nM |  |  |  |  |  | GI50 [19]: 1 nM; GI50 [21]: 1 nM
CO[C@@H]1[C@@H](/C=C/C(C)=C/C[C@@H]2O[C@H](C)[C@H](NC(=O)/C=C\[C@H](C)OC(=O)N3CCOCC3)C[C@@H]2C)OC(C)(C)C[C@@]12CO2 | 1.4 nM | 39 nM | 4 nM | 12 nM | 9 nM |  |  |  | 0.4 nM | 1.5 | 1.1 nM | 4.6 | 3.5 | 15 | concentration at 4 h [22]: < 10 ng/mL
CC(=O)O[C@@H](C)/C=C\C(=O)N[C@@H]1C[C@H](C)[C@H](C/C=C(C)/C=C/[C@H]2OC(C)(C)C[C@@]3(CO3)[C@@H]2O)O[C@@H]1C | 0.07 nM | 0.44 nM | 0.06 nM | 0.91 nM | 0.11 nM | Non-toxic | inactive | 2 h | 0.02 nM | 1 | 0.07 nM | 2.7 | 1.6 | 6 | Activity [28]: Non-toxic; inhibition in vivo at 6 mg/kg [29]: 24%
